From patent EP4653448A1, “COMPOUND FOR RNA CAPPING AND USE THEREOF” (Guangzhou Henovcom Bioscience Co. Ltd., priority 2023, dated 2024) come the findings set out here.

Assay [1] has as its target T7 RNA Polymerase (Escherichia phage T7, UniProt P00573). In words: Detection of the efficiency of mRNA capping synthesis (in vitro transcription, product yield). The format is biochemical. To be noted: 20 µL mRNA synthesis reaction system. How it is done:
• 1) The plasmids were linearized and the DNA templates were purified. • 2) The mRNA was synthesized by in vitro transcription, using the capping structure prepared in the present disclosure, positive control CleanCap®AG (3'OMe) (Trilink, N-7413), negative control (uncapped mRNA) and blank control (DNase/RNase-Free water), respectively. Reaction system
The reaction was carried out at 37°C for 2 to 3 h. TURBO DNase digestion was carried out for 15 min. The mRNA was precipitated by LiCl for 30 min or more or overnight, and the mRNA precipitate was washed with 75% ethanol, dried briefly to evaporate the ethanol, and the mRNA was redissolved with RNase-Free water.
In the reaction system listed in Table 1, since the solubility of different test compounds varies in different solutions, adjustments can be made as needed. For ease of operation, the commonly used concentrations are 10 mM and 100 mM. […] If the initial concentration of the test compound is 10 mM, the dosage is 8 µL. Regardless of the initial concentration, the dosages of different test compounds were the same, and the final concentrations were also the same.
For example, when testing compounds S17 and S19, their initial concentration was 10 mM, and the addition volume was 8 µL. When testing compounds 5 and 6, their initial concentration was 100 mM, and the addition volume was 0.8 µL.
The assay was performed according to the method described in Example 20.

The test system of assay [2] is HEK293T cells. In words: Expression efficiency of capped luciferase mRNAs in HEK293T cells. The format is cell-based. To be noted: 6 h after transfection of capped luciferase mRNA. Here is the method: • 1) HNE293T cells were cultured in DMEM medium containing 10% FBS and penicillin/streptomycin at 37°C and 5% CO2. • 2) The cultured HEK293T cells were spread in a 96-well plate with 1.25 × 10^4 cells per well. • 3) After the cells completely adhered to the wall, 0.5 µg of a mixture of mRNA sample and Polyplus jet[…] was added to each well of cells, and cultured at 37°C and 5% CO2 for 6 h. • 4) The growth medium was removed from the cells to be tested and the cells were rinsed with PBS. After centrifugation to remove PBS, 50 µL of 1x lysis buffer was added thereto, and cells and all liquid were transferred to a microcentrifuge tube, and then centrifuged at 12000 x g at 4°C for 2 min. • 5) The supernatant was transferred to a new tube. Fluorescence readings were detected using the ONE-Glo Luciferase Assay System Kit.
All test compounds, N-7413, negative control and blank control were tested under the same conditions, and some experimental results in the test results are shown in Table 3. Table 3. Relative fluorescence readings for capped mRNAs
The assay was performed according to the method described in Example 21. All test compounds, N-7413, negative control and blank control were tested under the same conditions, and some experimental results in the test results are shown in Table 5. Table 5 Relative fluorescence readings for capped mRNAs

Assay [3] concerns the target streptavidin-coated magnetic beads (Streptomyces avidinii, UniProt P22629). In words: Biotin affinity assay (capture of capped mRNA on streptavidin beads and elution). To be noted: capped mRNA bound to streptavidin beads, eluted at 80°C. The format is binding. How it is done: • 1) S1-30nt-mRNA (mRNA capped with compound S1, with a length of 30 nt) was prepared and purified by LiCl; • 2) 500 µL of streptavidin-coated magnetic beads (2 mg) were taken, and the test tube was placed on a magnetic stand to collect the magnetic beads. The supernatant was removed and discarded, and the magnetic beads were washed; • 3) The magnetic beads were resuspended in 600 µL of TES buffer, and 5.5 µg of S1-30nt-mRNA from 1) was added to the magnetic bead resuspension and mixed well; the mixture was incubated at room temperature for one hour on a shaker or vortex mixer; • 4) The sample was placed on the magnetic stand for 5 min, and after the solution became clear, the supernatant was removed; • 5) While keeping the sample on the magnetic stand, the magnetic beads were rinsed three times with TES buffer; • 6) While keeping the sample on the magnetic stand, the magnetic beads were rinsed three times with distilled water; • 7) The deionized water was removed from the beads, and 60 µL of elution buffer heated to 80°C was added and mixed well. The mixture was heated to 80°C for 3 min in a constant-temperature metal bath, then placed on the magnetic stand for 3 min. The supernatant was aspirated as the elution product. • 8) Experimental results

Setting [4] is: reading of N-7413 = 1 (Table 5).
Setting [5] is: test compound 4 mM, 37°C 2 to 3 h (Table 2).
Where [6] appears, read: 0.5 µg per well, reading of N-7413 = 1 (Table 3).

T7 RNA Polymerase, sequence (P00573 whole entry): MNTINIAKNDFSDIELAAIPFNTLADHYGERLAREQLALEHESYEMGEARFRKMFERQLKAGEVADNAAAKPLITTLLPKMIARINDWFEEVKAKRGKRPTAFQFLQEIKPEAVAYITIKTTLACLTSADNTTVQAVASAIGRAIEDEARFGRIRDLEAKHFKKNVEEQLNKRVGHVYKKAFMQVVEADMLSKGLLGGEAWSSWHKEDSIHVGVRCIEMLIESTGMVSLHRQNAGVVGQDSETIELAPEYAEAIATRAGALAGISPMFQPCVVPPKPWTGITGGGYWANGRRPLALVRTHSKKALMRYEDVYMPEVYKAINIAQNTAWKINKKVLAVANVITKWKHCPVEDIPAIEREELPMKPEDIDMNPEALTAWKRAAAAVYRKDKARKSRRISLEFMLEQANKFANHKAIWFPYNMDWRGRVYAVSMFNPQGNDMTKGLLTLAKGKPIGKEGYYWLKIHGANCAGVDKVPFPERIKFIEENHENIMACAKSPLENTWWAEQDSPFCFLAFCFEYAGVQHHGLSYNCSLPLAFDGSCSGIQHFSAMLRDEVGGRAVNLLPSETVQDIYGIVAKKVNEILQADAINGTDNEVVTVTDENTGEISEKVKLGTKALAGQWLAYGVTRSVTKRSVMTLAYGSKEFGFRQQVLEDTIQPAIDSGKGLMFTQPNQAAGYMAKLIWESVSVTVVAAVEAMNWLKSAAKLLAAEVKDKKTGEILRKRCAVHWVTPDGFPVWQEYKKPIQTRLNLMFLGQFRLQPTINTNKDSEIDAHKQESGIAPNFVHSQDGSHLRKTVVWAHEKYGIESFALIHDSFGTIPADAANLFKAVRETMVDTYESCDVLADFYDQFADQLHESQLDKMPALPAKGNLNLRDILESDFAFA
streptavidin-coated magnetic beads, sequence (P22629 25-183): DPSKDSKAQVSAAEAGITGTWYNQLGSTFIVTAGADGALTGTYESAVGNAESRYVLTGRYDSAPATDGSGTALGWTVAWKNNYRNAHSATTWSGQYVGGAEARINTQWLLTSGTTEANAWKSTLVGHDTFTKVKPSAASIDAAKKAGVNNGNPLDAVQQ

As to `COCC1(F)C(COP(=O)(O)OP(O)(=S)OP(=O)(O)OCC2OC(n3cnc4c(N)ncnc43)C(OC)C2OP(=O)([O-])OCC2OC(n3cnc4c(=O)[nH]c(N)nc43)C(O)C2O)OC(n2c[n+](C)c3c(=O)[nH]c(N)nc32)C1O` (stereo not drawn) [Compound D97], the Final product mass in assay [1] (method of Example 20 (Table 4)) is on record as 91 µg. In assay [2] (setting [4]), this compound returned a Relative fluorescence reading of 2.05.

On to `CO[C@@H]1[C@H](OP(=O)([O-])OC[C@H]2O[C@@H](n3cnc4c(=O)[nH]c(N)nc43)[C@H](O)[C@@H]2O)[C@@H](COP(=O)(O)OP(=O)(O)OP(=O)(O)OC[C@H]2O[C@@H](n3c[n+](C)c4c(=O)[nH]c(N)nc43)[C@H](O)[C@@H]2OC)O[C@H]1n1cnc2c(N)ncnc21` [Compound N-7413, reference compound], for which the Final product mass in assay [1] (method of Example 20 (Table 4)) and in assay [1] (setting [5]) was 122 µg each time. Further, the Relative fluorescence reading in assay [2] (setting [6]) and in assay [2] (setting [4]) was 1.00 each time.

As to `CO[C@@H]1[C@H](OP(=O)(O)OC[C@H]2O[C@@H](n3cnc4c(=O)[nH]c(N)nc43)[C@H](O)[C@@H]2O)[C@@H](COP(=O)(O)OP(=O)(O)OP(=O)([O-])OC[C@H]2O[C@@H](n3c[n+](C)c4c(=O)[nH]c(N)nc43)[C@H](O)[C@@H]2CNC(=O)CCCC[C@@H]2SC[C@@H]3NC(=O)N[C@@H]32)O[C@H]1n1cnc2c(N)ncnc21` [Compound S1], the Final product mass in assay [1] (setting [5]) is 139 µg. This compound also gave a Relative fluorescence reading in assay [2] (setting [6]) of 2.41.

Turning to `CO[C@@H]1[C@H](OP(=O)(O)OC[C@H]2O[C@@H](n3cnc4c(=O)[nH]c(N)nc43)[C@H](O)[C@@H]2O)[C@@H](COP(=O)(O)OP(=O)(O)OP(=O)([O-])OC[C@H]2O[C@@H](n3c[n+](C)c4c(=O)[nH]c(N)nc43)[C@H](O)[C@@H]2CNC(=O)CCCCCNC(=O)CCCC[C@@H]2SC[C@@H]3NC(=O)N[C@@H]32)O[C@H]1n1cnc2c(N)ncnc21` [Compound S3], the recovery rate entry in assay [3] is “above 95%”. The compound further came in with a Final product mass in assay [1] (setting [5]) of 137 µg. The Relative fluorescence reading in assay [2] (setting [6]) is 2.56.

On to `CO[C@@H]1[C@H](OP(=O)([O-])OC[C@H]2O[C@@H](n3cnc4c(=O)[nH]c(N)nc43)[C@H](O)[C@@H]2O)[C@@H](COP(=O)(O)OP(=O)(O)OP(=O)(O)OC[C@H]2O[C@@H](n3c[n+](C)c4c(=O)[nH]c(N)nc43)[C@H](O)[C@@H]2Cn2cc(CNC(=O)CCCC[C@@H]3SC[C@@H]4NC(=O)N[C@@H]43)nn2)O[C@H]1n1cnc2c(N)ncnc21` [Compound S41], for which, in assay [3], the recovery rate result is “above 95%”. Further, the Final product mass in assay [1] (setting [5]) is listed as 126 µg. Moreover, the Relative fluorescence reading in assay [2] (setting [6]) is listed as 1.81.

On to `CNc1ccccc1C(=O)NC[C@H]1[C@@H](O)[C@H](n2c[n+](C)c3c(=O)[nH]c(N)nc32)O[C@@H]1COP(=O)([O-])OP(=O)(O)OP(=O)(O)OC[C@H]1O[C@@H](n2cnc3c(N)ncnc32)[C@H](OC)[C@@H]1OP(=O)(O)OC[C@H]1O[C@@H](n2cnc3c(=O)[nH]c(N)nc32)[C@H](O)[C@@H]1O` [Compound S165], for which the Final product mass in assay [1] (setting [5]) came to 88 µg. The Relative fluorescence reading in assay [2] (setting [6]) was 0.34.

Consider `CNc1ccccc1C(=O)NCCCCCC(=O)NC[C@H]1[C@@H](O)[C@H](n2c[n+](C)c3c(=O)[nH]c(N)nc32)O[C@@H]1COP(=O)([O-])OP(=O)(O)OP(=O)(O)OC[C@H]1O[C@@H](n2cnc3c(N)ncnc32)[C@H](OC)[C@@H]1OP(=O)(O)OC[C@H]1O[C@@H](n2cnc3c(=O)[nH]c(N)nc32)[C@H](O)[C@@H]1O` [Compound S166], for which, in assay [1] (setting [5]), the Final product mass is given as 91 µg. The Relative fluorescence reading in assay [2] (setting [6]) worked out at 0.87.

`CO[C@@H]1[C@H](OP(=O)([O-])OC[C@H]2O[C@@H](n3cnc4c(=O)[nH]c(N)nc43)[C@H](O)[C@@H]2O)[C@@H](COP(=O)(O)OP(=O)(O)OP(=O)(O)OC[C@H]2O[C@@H](n3c[n+](C)c4c(=O)[nH]c(N)nc43)[C@H](O)[C@@H]2NC(=O)CCCC[C@@H]2SC[C@@H]3NC(=O)N[C@@H]32)O[C@H]1n1cnc2c(N)ncnc21` [Compound S169]: in assay [3], the recovery rate entry is recorded as “above 95%”. The Final product mass in assay [1] (setting [5]) is 131 µg. In assay [2] (setting [6]), this compound had a Relative fluorescence reading of 1.35.

As to `CO[C@@H]1[C@H](OP(=O)([O-])OC[C@H]2O[C@@H](n3cnc4c(=O)[nH]c(N)nc43)[C@H](O)[C@@H]2O)[C@@H](COP(=O)(O)OP(=O)(O)OP(=O)(O)OC[C@H]2O[C@@H](n3c[n+](C)c4c(=O)[nH]c(N)nc43)[C@H](O)[C@@H]2CC(=O)NCCNC(=O)CCCC[C@@H]2SC[C@@H]3NC(=O)N[C@@H]32)O[C@H]1n1cnc2c(N)ncnc21` [Compound S170], in assay [3], the recovery rate entry is “above 95%”. The compound further registered a Final product mass in assay [1] (setting [5]) of 96 µg. The compound also showed a Relative fluorescence reading in assay [2] (setting [6]) of 1.47.
